Source: patent US8841125B2, “Cancer tissue-derived cell mass and a process for preparing same” (Renaissance Energy Investment Co., Ltd., priority 2009, dated 2014)

Test system: cell mass derived from the cancer tissue (surgical specimens of human colon cancer, Example 2)
Assay: Drug sensitivity test with cell masses embedded in collagen gel
Type: cell-based
Conditions: 5-FU at 0.01, 0.1, 1, 10 and 100 μg/ml; day 8 vs day 0 of culture; FIG. 4
Method: Using 5-FU which is known to inhibit DNA synthesis by binding to a thymidylic acid synthetase involved in the metabolism process necessary for DNA synthesis, a drug sensitivity test on a sample of Example 2 was carried out. The test was carried out by embedding the cell masses (×10 each) derived from the cancer tissue in a collagen gel (CellMatrix type IA (Nitta Gelatin Inc.):5×DMEM (Gibco; 12100-038):buffer solution for gel reconstruction (50 mM NaOH, 260 mM NaHCO3, 200 mM HEPES)=7:2:1), and culturing in 1 cc of STEMPRO serum-free medium (Gibco) for human ES cells in an incubator under the culture conditions of 37° C. and 5% CO2. In addition, 5-FU was applied at a concentration of 0.01 μg/ml, 0.1 μg/ml, 1 μg/ml, 10 μg/ml, and 100 μg/ml, and the states of the cells on days 0 and 8 after culture were compared for evaluation. An increasing rate of the area of the cell mass derived from the cancer tissue was expressed relative to 1 of an increasing rate of the area of the cell mass in the culture without application of a drug.

With `O=c1[nH]cc(F)c(=O)[nH]1` [5-FU] the “proliferation of the cancer cell (increasing rate of the area of the cell mass relative to 1 for culture without drug)” value was “concentration-dependently suppressed”.
